Assay results reported in US10966995B2, “Use of secoisolariciresinol diglucosides (SDGS) and related compounds for protection against radiation and chemical damage” (THE TRUSTEES OF THE UNIVERSITY OF PENNSYLVANIA, priority 2014, dated 2021).

Columns and labels:
[1] = tested on: murine primary lung cells (epithelial, endothelial and WT fibroblasts); assay: Alkaline comet assay (DNA SSBs) in irradiated primary lung cells; format: cell-based, mouse; settings: 2 Gy
Protocol: Fibroblasts and endothelial cells were isolated from C57/bl6 mouse. For fibroblast isolation, mouse lungs were harvested, minced, and incubated with dispase (2 mg/ml) for 45 minutes. Pieces were plated out and fibroblasts were cultured as described previously and used between passages 3 and 10. Pulmonary microvascular endothelial cells (PMVEC) were isolated from murine lungs as described previously. Briefly, freshly harvested mouse lungs were treated with collagenase followed by isolation of cells by adherence to magnetic beads coated with mAb to platelet endothelial cell adhesion molecule (PECAM). Epithelial cells (C10) cells were originally derived from a normal BALB/c mouse lung explant and are non-tumorigenic, contact-inhibited, and have alveolar type 2 cell features at early passage.
Exponentially growing cells were cultured and treated with SDG (50 μM) at different time intervals prior to irradiation (2 Gy). Cells were processed for comet assay as per manufacturer's instructions (Trevigen, Gaithersburg, Md.). […] At least 150 cells were scored per group. Visual analysis of cells and comet tail length was measured using Comet Image Analysis software (Comet Assay IV, Perceptive Instruments Ltd, Haverhill, UK) Images were captured on an Olympus IX51 fluorescence microscope using a monochrome CCD FireWire camera.

[2] = Hypochlorite scavenging with APF/HPF fluorescent probes (sodium hypochlorite); settings: commercially available SDG; FIG. 15B
Protocol: The fluorescence of ROS probes APF and HPF in PBS was measured at excitation/emission at 490 nm/515 nm in presence of hypochlorite or after γ-radiation exposure. Data is expressed as relative fluorescence units (RFU).

[3] = tested on: Nrf2-regulated antioxidant enzymes (AOE); assay: SDG dosing study: antioxidant enzyme expression in lung after oral gavage; format: in vivo, mouse
Protocol: SDG doses of 5, 25, 50 and 100 mg/Kg body weight were administered orally to mice (n=5 per dose) and 4 hours later tissues were collected for analysis. Plasma concentrations of SDG and its bioactive metabolites ED, EL and SECO were analyzed by liquid chromatography and mass spectrometry and are expressed in ng/mL (FIG. 39) while gene expression levels of Nrf2-regulated antioxidant enzymes (AOE), an intracellular target of SDG and its metabolites, were determined in lung tissues from the same animals using qRT-PCR (FIG. 40). Gene expression levels of HO1, NQO1 and GST, increased 2-3 fold with as little as 5 mg SDG/Kg and reached an average of 6-fold increase over baseline with 100 mg/Kg SDG.

[4] = tested on: mouse peritoneal macrophages; assay: Asbestos-exposed peritoneal macrophages: oxidative/nitrosative stress and cytokine secretion; format: cell-based; settings: 20 μg/cm^2 asbestos; 25 and 50 μM SDG 3-8 hours post exposure; p<0.05
Protocol: To test the hypothesis that the flaxseed lignan SDG will decrease asbestos-induced inflammation, and oxidative and nitrosative stress, mouse peritoneal macrophages were exposed to varying concentrations of crocidolite asbestos fibers ([…]). At variable times post asbestos exposure (3, 4, 6, and 8 hours), cells were incubated with SDG (50 μM) and supernatants collected 24 hours later to detect inflammatory cytokine secretion and nitrosative/oxidative stress (FIG. 49).
(§1) SDG given to macrophages several hours post exposure to asbestos decreases oxidative stress (FIGS. 52A-52B). Female C57/Bl6 mice were injected with 2 mL of thioglycollate and peritoneal macrophages harvested after 3 days. 2 million cells per well were plated in a 6 well plate and exposed to 20 μg/cm^2 asbestos. Cells were treated with 25 or 50 μM SDG (synthetic SDG) 3, 4, 6, or 8 hours post-asbestos exposure. Cells were harvested 24 hours post-asbestos exposure. Analysis performed on frozen supernatant samples.
as §1, with “Given” for “given”, “Macrophages Several Hours Post Exposure to Asbestos Decreases Nitrosative Stress (FIGS. 53A-53B). To evaluate of SDG in blunting nitrosative stress in cells” for “macrophages several hours”, “post” for “post exposure to”, “exposure, female” for “decreases oxidative stress (FIGS. 52A-52B). Female”
(§2) SDG Given to Macrophages Several Hours Post Exposure to Asbestos Decreases inflammatory cytokine secretion (IL-1β) (FIGS. 54A-54B). To evaluate SDG in blunting inflammatory cytokine secretion (IL-1β) in cells post asbestos exposure, female C57/Bl6 mice were injected with 2 mL of thioglycollate and peritoneal macrophages harvested after 3 days 2 million cells per well were plated in a 6 well plate and exposed to 20 μg/cm^2 asbestos. Cells were treated with 25 or 50 μM SDG (synthetic SDG) 3, 4, 6, or 8 hours post-asbestos exposure. Cells were harvested 24 hours post-asbestos exposure. Analysis performed on fresh supernatant samples.
as §2, with “(TNF-α)” for “(IL-1β)”, “55A-55B).” for “54A-54B).”, “days.” for “days”, “Cells were harvested 24 hours post-asbestos exposure. Analysis performed on fresh supernatant samples.” left out

## COc1cc(C[C@@H](CO[C@@H]2O[C@H](CO)[C@@H](O)[C@H](O)[C@H]2O)[C@H](CO[C@@H]2O[C@H](CO)[C@@H](O)[C@H](O)[C@H]2O)Cc2ccc(O)c(OC)c2)ccc1O [SDG, secoisolariciresinol diglucoside]
[1]; SDG 50 μM pre-treatment at all time intervals, all three cell types
  Radiation-induced comet tail length: significantly inhibited
[1]; SDG 50 μM, all cell types
  Pre-treatment time giving maximum protection against radiation-induced tail moment: 6 h
[2]
  ClO^− scavenging: decreased ClO^− dose-dependently
[3]; 5 mg SDG/Kg oral, 4 hours
  Gene expression levels of HO1, NQO1 and GST in lung, increase: 2-3 fold
[3]; 100 mg/Kg SDG oral, 4 hours
  Gene expression levels of HO1, NQO1 and GST in lung, average increase over baseline: 6 fold
[3]; oral SDG dosing study
  Protein levels in lung tissues: lower but yet significant increase
[4]
  IL-1β levels: significantly decreased
  Malondialdehyde (MDA) levels, lipid peroxidation: significantly decreased
  Nitrite, marker for nitrosative stress: significantly decreased
  TNF-α levels: significantly decreased
